Tested on: not listed separately
Assay: In vitro cytotoxicity by MTT assay, HEK 293
Type: cell-based, human
Conditions: human, HEK 293 cells, 0.005 μM, read-out: % cytotoxicity (100 − % cell survival) of HEK 293 cell line
Method: (§1) The cancer cell line cultures of HEK 293 ([…]), BT474 (breast cancer cell line) and NCI-H226 (lung cancer) were obtained from Pasteur Institute of India, Coonoor, India, and were cultured in RPMI-1640 and 10 % heat-[…] New born calf serum with antibiotics [penicillin ([…]), streptomycin (100 μg/mL) and amphotericin B (25 μg/mL)]. The cells were maintained at 37 °C in a humidified atmosphere with 5 % CO2 and were subcultured twice a week.
(§2) The monolayer cell culture (100 μL) was trypsinized, and the cell count was adjusted to […] using medium containing 10 % new born calf serum. To each well of the 96-well microtitre plate, the diluted cell suspension (approximately 10,000 cells) (0.1 mL) was added and kept for 24 h in incubator at 37 °C in 5 % CO2 atmosphere for cell monolayer formation. After 24 h, when a partial monolayer was formed at the bottom of the well, the supernatant was flicked off, the monolayer was washed once, and different drugs, i.e. synthesized compounds (100 μL), were added to the cells in microtitre plates. The plates were then incubated at 37 °C for 3 days in 5 % CO2 atmosphere, and microscopic examination was carried out and observations recorded every 24 h. After 72 h, the sample solution in the wells was flicked off; MTT dye ([…]) was added to each well; plates were gently shaken and incubated for 4 h at 37 °C in 5 % CO2 incubator. The supernatant was removed and propanol (50 μL) was added; the plates were gently shaken to solubilize the formed formazan. The absorbance was measured using a microplate reader at a wavelength of 490 nm (Edmondson et al., [1988]; Prasad et al., [2005]; Chiruvella et al., [2008]; Chang et al., [2007]).

Row | SMILES | cytotoxicity at 72 h, 0.005 µM
1 | Nc1nnc(S(=O)(=O)NC(=O)c2ccc(Cl)cc2)s1 [Compound 4g] | 39.3%

Same assay, conditions: human, HEK 293 cells, 0.015 μM, read-out: % cytotoxicity (100 − % cell survival) of HEK 293 cell line

Row | SMILES | cytotoxicity at 72 h, 0.015 µM
2 | Nc1nnc(S(=O)(=O)NC(=O)c2ccc(Cl)cc2)s1 [Compound 4g] | 40.5%

Same assay, conditions: human, HEK 293 cells, 0.045 μM, read-out: % cytotoxicity (100 − % cell survival) of HEK 293 cell line

Row | SMILES | cytotoxicity at 72 h, 0.045 µM
3 | Nc1nnc(S(=O)(=O)NC(=O)c2ccc(Cl)cc2)s1 [Compound 4g] | 41.2%

Same assay, conditions: human, HEK 293 cells, 0.13 μM, read-out: % cytotoxicity (100 − % cell survival) of HEK 293 cell line

Row | SMILES | cytotoxicity at 72 h, 0.13 µM
4 | Nc1nnc(S(=O)(=O)NC(=O)c2ccc(Cl)cc2)s1 [Compound 4g] | 43.7%

Same assay, conditions: human, HEK 293 cells, 0.41 μM, read-out: % cytotoxicity (100 − % cell survival) of HEK 293 cell line

Row | SMILES | cytotoxicity at 72 h, 0.41 µM
5 | Nc1nnc(S(=O)(=O)NC(=O)c2ccc(Cl)cc2)s1 [Compound 4g] | 45.1%

Same assay, conditions: human, HEK 293 cells, 1.23 μM, read-out: % cytotoxicity (100 − % cell survival) of HEK 293 cell line

Row | SMILES | cytotoxicity at 72 h, 1.23 µM
6 | Nc1nnc(S(=O)(=O)NC(=O)c2ccc(Cl)cc2)s1 [Compound 4g] | 45.6%

Same assay, conditions: human, HEK 293 cells, 3.7 μM, read-out: % cytotoxicity (100 − % cell survival) of HEK 293 cell line

Row | SMILES | cytotoxicity at 72 h, 3.7 µM
7 | Nc1nnc(S(=O)(=O)NC(=O)c2ccc(Cl)cc2)s1 [Compound 4g] | 46.4%

Same assay, conditions: human, HEK 293 cells, 11.11 μM, read-out: % cytotoxicity (100 − % cell survival) of HEK 293 cell line

Row | SMILES | cytotoxicity at 72 h, 11.11 µM
8 | Nc1nnc(S(=O)(=O)NC(=O)c2ccc(Cl)cc2)s1 [Compound 4g] | 47.1%

Same assay, conditions: human, HEK 293 cells, 33.33 μM, read-out: % cytotoxicity (100 − % cell survival) of HEK 293 cell line

Row | SMILES | cytotoxicity at 72 h, 33.33 µM
9 | Nc1nnc(S(=O)(=O)NC(=O)c2ccc(Cl)cc2)s1 [Compound 4g] | 48.7%

Same assay, conditions: human, HEK 293 cells, 100 μM, read-out: % cytotoxicity (100 − % cell survival) of HEK 293 cell line

Row | SMILES | cytotoxicity at 72 h, 100 µM
10 | Nc1nnc(S(=O)(=O)NC(=O)c2ccc(Cl)cc2)s1 [Compound 4g] | 50.2%

Tested on: BT474 (breast cancer cell line)
Assay: In vitro cytotoxicity by MTT assay, BT474
Type: cell-based
Conditions: Homo sapiens, BT-474, 0.005 μM, 72 h, read-out: % cytotoxicity (100 − % cell survival) of BT474 cell line
Method: as §1, §2

Row | SMILES | cytotoxicity at 0.005 µM
11 | Nc1nnc(S(=O)(=O)NC(=O)c2ccc(Cl)cc2)s1 [Compound 4g] | 30.6%

Same assay, conditions: Homo sapiens, BT-474, 0.015 μM, 72 h, read-out: % cytotoxicity (100 − % cell survival) of BT474 cell line

Row | SMILES | cytotoxicity at 0.015 µM
12 | Nc1nnc(S(=O)(=O)NC(=O)c2ccc(Cl)cc2)s1 [Compound 4g] | 31.4%

Same assay, conditions: Homo sapiens, BT-474, 0.045 μM, 72 h, read-out: % cytotoxicity (100 − % cell survival) of BT474 cell line

Row | SMILES | cytotoxicity at 0.045 µM
13 | Nc1nnc(S(=O)(=O)NC(=O)c2ccc(Cl)cc2)s1 [Compound 4g] | 32.1%

Same assay, conditions: Homo sapiens, BT-474, 0.13 μM, 72 h, read-out: % cytotoxicity (100 − % cell survival) of BT474 cell line

Row | SMILES | cytotoxicity at 0.13 µM
14 | Nc1nnc(S(=O)(=O)NC(=O)c2ccc(Cl)cc2)s1 [Compound 4g] | 33.2%

Same assay, conditions: Homo sapiens, BT-474, 0.41 μM, 72 h, read-out: % cytotoxicity (100 − % cell survival) of BT474 cell line

Row | SMILES | cytotoxicity at 0.41 µM
15 | Nc1nnc(S(=O)(=O)NC(=O)c2ccc(Cl)cc2)s1 [Compound 4g] | 34.1%

Same assay, conditions: Homo sapiens, BT-474, 1.23 μM, 72 h, read-out: % cytotoxicity (100 − % cell survival) of BT474 cell line

Row | SMILES | cytotoxicity at 1.23 µM
16 | Nc1nnc(S(=O)(=O)NC(=O)c2ccc(Cl)cc2)s1 [Compound 4g] | 34.9%

Same assay, conditions: Homo sapiens, BT-474, 3.7 μM, 72 h, read-out: % cytotoxicity (100 − % cell survival) of BT474 cell line

Row | SMILES | cytotoxicity at 3.7 µM
17 | Nc1nnc(S(=O)(=O)NC(=O)c2ccc(Cl)cc2)s1 [Compound 4g] | 35.2%

Same assay, conditions: Homo sapiens, BT-474, 11.11 μM, 72 h, read-out: % cytotoxicity (100 − % cell survival) of BT474 cell line

Row | SMILES | cytotoxicity at 11.11 µM
18 | Nc1nnc(S(=O)(=O)NC(=O)c2ccc(Cl)cc2)s1 [Compound 4g] | 36.2%

Same assay, conditions: Homo sapiens, BT-474, 33.33 μM, 72 h, read-out: % cytotoxicity (100 − % cell survival) of BT474 cell line

Row | SMILES | cytotoxicity at 33.33 µM
19 | Nc1nnc(S(=O)(=O)NC(=O)c2ccc(Cl)cc2)s1 [Compound 4g] | 37.8%

Same assay, conditions: Homo sapiens, BT-474, 100 μM, 72 h, read-out: % cytotoxicity (100 − % cell survival) of BT474 cell line

Row | SMILES | cytotoxicity at 100 µM
20 | Nc1nnc(S(=O)(=O)NC(=O)c2ccc(Cl)cc2)s1 [Compound 4g] | 38.2%

Tested on: not listed separately
Assay: In vitro cytotoxicity by MTT assay, NCI-H226
Type: cell-based
Conditions: human, NCI-H226 lung cancer cells, 0.015 μM, read-out: % Cytotoxicity (100 − % cell survival) of NCI-H226 cell line
Method: as §1, §2

Row | SMILES | cytotoxicity at 72 h, 0.015 µM
21 | Nc1nnc(S(=O)(=O)NC(=O)c2ccc(Cl)cc2)s1 [Compound 4g] | 36.1%

Tested on: NCI-H226 (lung cancer cell line)
Assay: In vitro cytotoxicity by MTT assay, NCI-H226
Type: cell-based
Conditions: Homo sapiens, NCI-H226, 0.005 μM, 72 h, read-out: % Cytotoxicity (100 − % cell survival) of NCI-H226 cell line
Method: as §1, §2

Row | SMILES | cytotoxicity at 0.005 µM
22 | Nc1nnc(S(=O)(=O)NC(=O)c2ccc(Cl)cc2)s1 [Compound 4g] | 35.8%

Same assay, conditions: Homo sapiens, NCI-H226, 0.045 μM, 72 h, read-out: % Cytotoxicity (100 − % cell survival) of NCI-H226 cell line

Row | SMILES | cytotoxicity at 0.045 µM
23 | Nc1nnc(S(=O)(=O)NC(=O)c2ccc(Cl)cc2)s1 [Compound 4g] | 37%

Same assay, conditions: Homo sapiens, NCI-H226, 0.13 μM, 72 h, read-out: % Cytotoxicity (100 − % cell survival) of NCI-H226 cell line

Row | SMILES | cytotoxicity at 0.13 µM
24 | Nc1nnc(S(=O)(=O)NC(=O)c2ccc(Cl)cc2)s1 [Compound 4g] | 37.1%

Same assay, conditions: Homo sapiens, NCI-H226, 0.41 μM, 72 h, read-out: % Cytotoxicity (100 − % cell survival) of NCI-H226 cell line

Row | SMILES | cytotoxicity at 0.41 µM
25 | Nc1nnc(S(=O)(=O)NC(=O)c2ccc(Cl)cc2)s1 [Compound 4g] | 37.8%

Same assay, conditions: Homo sapiens, NCI-H226, 1.23 μM, 72 h, read-out: % Cytotoxicity (100 − % cell survival) of NCI-H226 cell line

Row | SMILES | cytotoxicity at 1.23 µM
26 | Nc1nnc(S(=O)(=O)NC(=O)c2ccc(Cl)cc2)s1 [Compound 4g] | 38.1%

Same assay, conditions: Homo sapiens, NCI-H226, 3.7 μM, 72 h, read-out: % Cytotoxicity (100 − % cell survival) of NCI-H226 cell line

Row | SMILES | cytotoxicity at 3.7 µM
27 | Nc1nnc(S(=O)(=O)NC(=O)c2ccc(Cl)cc2)s1 [Compound 4g] | 39.4%

Same assay, conditions: Homo sapiens, NCI-H226, 11.11 μM, 72 h, read-out: % Cytotoxicity (100 − % cell survival) of NCI-H226 cell line

Row | SMILES | cytotoxicity at 11.11 µM
28 | Nc1nnc(S(=O)(=O)NC(=O)c2ccc(Cl)cc2)s1 [Compound 4g] | 40.3%

Same assay, conditions: Homo sapiens, NCI-H226, 33.33 μM, 72 h, read-out: % Cytotoxicity (100 − % cell survival) of NCI-H226 cell line

Row | SMILES | cytotoxicity at 33.33 µM
29 | Nc1nnc(S(=O)(=O)NC(=O)c2ccc(Cl)cc2)s1 [Compound 4g] | 41.4%

Same assay, conditions: Homo sapiens, NCI-H226, 100 μM, 72 h, read-out: % Cytotoxicity (100 − % cell survival) of NCI-H226 cell line

Row | SMILES | cytotoxicity at 100 µM
30 | Nc1nnc(S(=O)(=O)NC(=O)c2ccc(Cl)cc2)s1 [Compound 4g] | 41.8%
